In patent US12371454B2, “Cyclic peptide compound having Kras inhibitory action” (priority 2019, dated 2025):
Starred links: 1 amine or outer side, 2 acyl side, 3 side chain; linkers in the order of their positions; H or OH if unused. Positions of bridges follow the written chain, without caps; N, C: chain ends. Non-standard residues stand in square brackets, D forms with d. Residues, ends and D or L forms follow the SMILES beside them. *: point of attachment. hPhe(3-Cl-4-CF3) = N[C@@H](CCc1ccc(C(F)(F)F)c(Cl)c1)C(=O)O; NMePhe(4-CF3) = CN[C@@H](Cc1ccc(C(F)(F)F)cc1)C(=O)O; 3Oxa8azabicyclo(3.2.1)octane = C1CC2COCC1N2*; NEtPhe(4-Me) = CCN[C@@H](Cc1ccc(C)cc1)C(=O)O; NMePhe(4-Me) = CN[C@@H](Cc1ccc(C)cc1)C(=O)O; NMedβ3hAla = C[C@H](CC(=O)[*:2])N(C)[*:1]; Phe(4-Cl) = N[C@@H](Cc1ccc(Cl)cc1)C(=O)O; NMeGly(cPent) = CN[C@H](C(=O)O)C1CCCC1; Phe(3-I) = N[C@@H](Cc1cccc(I)c1)C(=O)O; NMeCha = CN[C@@H](CC1CCCCC1)C(=O)O; NMeChg = CN[C@H](C(=O)O)C1CCCCC1; NMeI = CC[C@H](C)[C@H](NC)C(=O)O; NMeD = CN[C@@H](CC(=O)O)C(=O)O; NMeL = CN[C@@H](CC(C)C)C(=O)O; Chg = N[C@H](C(=O)O)C1CCCCC1; NMeV = CN[C@H](C(=O)O)C(C)C; d(β3hA) = C[C@@H](N)CC(=O)O; hSer = N[C@@H](CCO)C(=O)O; NMeA = CN[C@@H](C)C(=O)O; NMeAib = CNC(C)(C)C(=O)O; Piperidide = C1CCN(*)CC1; dNMeA = CN[C@H](C)C(=O)O; Ac5c = NC1(C(=O)O)CCCC1; Aze = O=C(O)[C@@H]1CCN1; Ac4c = NC1(C(=O)O)CCC1; Sar = CNCC(=O)O

These compounds were tested against T1, Kras and SOS1 (biotin-tagged human Kras loaded with GDP, His-tagged human SOS1) (Homo sapiens, UniProt P01116, G12D) (assay: Protein-protein interaction inhibition between Kras and SOS1 (KrasGl2D-SOS PPI) using AlphaScreen). Conditions: AlphaScreen; biotin-tagged human Kras loaded with GDP, His-tagged human SOS1; read-out: KRAS G12D-SOS PPI IC50.
T1 construct: made in house; host or cells: E. coli (stated for Kras only)
Assay type: binding
How it was run: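 Energy transfer from nickel-chelate donor beads bound to His-SOS1 to streptavidin acceptor beads bound to biotin-Kras, expressed in E. coli and loaded with GDP after purification, was monitored. Donors were excited at 680 nm; singlet oxygen reaching acceptors gave emission read at 520-620 nm.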

T1 sequence (P01116 1-188 isoform P01116-2 G12D): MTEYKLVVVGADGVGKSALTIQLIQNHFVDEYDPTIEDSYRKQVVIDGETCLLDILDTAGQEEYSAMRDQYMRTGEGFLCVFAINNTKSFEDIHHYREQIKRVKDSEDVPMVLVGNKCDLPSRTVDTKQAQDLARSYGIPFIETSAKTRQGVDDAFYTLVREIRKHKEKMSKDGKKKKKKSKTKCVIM

Row | SMILES | IC50
1 | COCC[C@@H]1NC(=O)[C@H](CC(C)C)N(C)C(=O)C[C@@H](C(=O)N2CCCCC2)N(C)C(=O)[C@H](C2CCCCC2)N(C)C(=O)C2(CCCC2)NC(=O)[C@@H]2CCCN2C(=O)[C@H](CCc2ccc(C(F)(F)F)c(Cl)c2)NC(=O)CN(C)C(=O)[C@H](CC2CCCCC2)N(C)C(=O)CN(C)C(=O)CN(C)C1=O [Compound 941] ([NMeL][hSer](Me)[Sar][Sar][NMeCha][Sar][hPhe(3-Cl-4-CF3)]P[Ac5c][NMeChg][NMeD]-Piperidide; lactam N-11) | 3.3 nM
2 | CC[C@H](C)[C@@H]1NC(=O)[C@H](C)N(C)C(=O)C[C@@H](C)N(C)C(=O)[C@H]([C@@H](C)CC)N(C)C(=O)C(C)(C)N(C)C(=O)[C@@H]2CCCN2C(=O)[C@H](CCc2ccc(C(F)(F)F)c(Cl)c2)NC(=O)CN(C)C(=O)[C@H](CC2CCCCC2)N(C)C(=O)[C@@H]2CCN2C(=O)[C@H](C)N(C)C1=O [Compound 2153] (cyclo([Aze][NMeCha][Sar][hPhe(3-Cl-4-CF3)]P[NMeAib][NMeI][NMedβ3hAla][NMeA]I[NMeA])) | 6.9 nM
3 | CC[C@H](C)[C@@H]1NC(=O)[C@H](CC(C)C)N(C)C(=O)C[C@@H](C)NC(=O)[C@H](C)N(C)C(=O)C2(CCCC2)NC(=O)[C@@H]2CCCN2C(=O)[C@H](CCc2ccc(C(F)(F)F)c(Cl)c2)NC(=O)CN(C)C(=O)[C@H](Cc2ccc(C)cc2)N(C)C(=O)[C@@H]2CCN2C(=O)[C@H](C)N(C)C1=O [Compound 1239] (cyclo([Ac5c][NMeA][d(β3hA)][NMeL]I[NMeA][Aze][NMePhe(4-Me)][Sar][hPhe(3-Cl-4-CF3)]P)) | 180 nM
4 | CC[C@H](C)[C@@H]1NC(=O)[C@H](CC(C)C)N(C)C(=O)C[C@@H](C(=O)N2CCCCC2)N(C)C(=O)[C@H](CC(C)C)NC(=O)C(C)(C)N(C)C(=O)[C@H](Cc2ccc(Cl)cc2)NC(=O)[C@H](Cc2cccc(I)c2)NC(=O)CN(C)C(=O)[C@H](CC2CCCCC2)N(C)C(=O)CN(C)C(=O)CN(C)C1=O [Compound 330] ([NMeL]I[Sar][Sar][NMeCha][Sar][Phe(3-I)][Phe(4-Cl)][NMeAib]L[NMeD]-Piperidide; lactam N-11) | 80 nM
5 | CC(C)C[C@H]1C(=O)N[C@@H](C2CCCCC2)C(=O)N(C)CC(=O)N(C)CC(=O)N(C)[C@@H](CC2CCCCC2)C(=O)N(C)CC(=O)N[C@@H](CCc2ccc(C(F)(F)F)c(Cl)c2)C(=O)N2CCC[C@H]2C(=O)NC2(CCCC2)C(=O)N(C)[C@@H](C(C)C)C(=O)N(C)[C@H](C(=O)N2CCCCC2)CC(=O)N1C [Compound 281] ([NMeL][Chg][Sar][Sar][NMeCha][Sar][hPhe(3-Cl-4-CF3)]P[Ac5c][NMeV][NMeD]-Piperidide; lactam N-11) | 7.8 nM

Each compound was assayed on Human pancreatic cancer cell line AsPC-1 (assay: Measurement of AsPC-1 cell growth inhibition (AsPC-1 CGI)). Conditions: 96 h.
Assay type: cell-based
Description: Measurement of AsPC-1 Cell Growth Inhibition (AsPC-1 CGI)
Test compounds were serially diluted with dimethyl sulfoxide, and 200 nL was then dispensed to a U-bottom 96-well plate using Labcyte Echo. Human pancreatic cancer cell line AsPC-1 was suspended in RPMI-1640 medium supplemented with 15% fetal bovine serum to prepare a cell suspension at 1000 cells/100 μL. The cell suspension was dispensed to a plate containing a test compound at 100 μL per well and incubated at 37° C. in a 5% carbon dioxide gas incubator. 96 hours later, 80 μL of CellTiter-Glo (Promega) was added to each well and […] was measured.

Row | SMILES | IC50
6 | CC[C@H](C)[C@@H]1NC(=O)[C@H](CC(C)C)N(C)C(=O)C[C@@H](C(=O)N2CCCCC2)N(C)C(=O)[C@H](C(C)C)N(C)C(=O)C2(CCC2)NC(=O)[C@@H]2CCCN2C(=O)[C@H](CCc2ccc(C(F)(F)F)c(Cl)c2)NC(=O)CN(C)C(=O)[C@H](CC2CCCCC2)N(C)C(=O)[C@@H]2CCN2C(=O)[C@H](C)N(C)C1=O [Compound 1672] ([NMeL]I[NMeA][Aze][NMeCha][Sar][hPhe(3-Cl-4-CF3)]P[Ac4c][NMeV][NMeD]-Piperidide; lactam N-11) | 100 to 500 nM
7 | CC[C@H](C)[C@@H]1NC(=O)[C@H](CC(C)C)N(C)C(=O)C[C@@H](C(=O)N(C)C)NC(=O)[C@H]([C@@H](C)CC)N(C)C(=O)C2(CCCC2)NC(=O)[C@@H]2CCCN2C(=O)[C@H](CCc2ccc(C(F)(F)F)c(Cl)c2)NC(=O)CN(C)C(=O)[C@H](CC2CCCCC2)N(C)C(=O)[C@@H]2CCN2C(=O)[C@H](C)N(C)C1=O [Compound 568] ([NMeL]I[NMeA][Aze][NMeCha][Sar][hPhe(3-Cl-4-CF3)]P[Ac5c][NMeI]D-NMe2; lactam N-11) | 100 to 500 nM
8 | CC[C@H](C)[C@@H]1NC(=O)[C@H](CC(C)C)N(C)C(=O)C[C@@H](C(=O)N2C3CCC2COC3)N(C)C(=O)[C@H](C2CCCC2)N(C)C(=O)C2(CCCC2)NC(=O)[C@@H]2CCCN2C(=O)[C@H](CCc2ccc(C(F)(F)F)c(Cl)c2)NC(=O)CN(C)C(=O)[C@H](Cc2ccc(C)cc2)N(CC)C(=O)[C@@H]2CCN2C(=O)[C@H](C)N(C)C1=O [Compound 1236] ([NMeL]I[NMeA][Aze][NEtPhe(4-Me)][Sar][hPhe(3-Cl-4-CF3)]P[Ac5c][NMeGly(cPent)][NMeD]-{3Oxa8azabicyclo(3.2.1)octane}; lactam N-11) | 20 to 50 nM
9 | CC[C@H](C)[C@@H]1NC(=O)[C@H](CC(C)C)N(C)C(=O)C[C@@H](C)NC(=O)[C@H](C2CCCC2)N(C)C(=O)C2(CCCC2)NC(=O)[C@@H]2CCCN2C(=O)[C@H](CCc2ccc(C(F)(F)F)c(Cl)c2)NC(=O)[C@@H](C)N(C)C(=O)[C@H](Cc2ccc(C(F)(F)F)cc2)N(C)C(=O)[C@@H]2CCN2C(=O)[C@H](C)N(C)C1=O [Compound 1482] (cyclo([Ac5c][NMeGly(cPent)][d(β3hA)][NMeL]I[NMeA][Aze][NMePhe(4-CF3)][dNMeA][hPhe(3-Cl-4-CF3)]P)) | 100 to 500 nM
